For one cell line, relative viability results are on record in the supplement of paper PMC10307832.

Assay in all cases: relative viability (nuclei count vs DMSO), 5 days (fraction); higher = more cells survive
Compound in the experiment “Bortezomib + Dasatinib”: CC(C)C[C@H](NC(=O)[C@H](Cc1ccccc1)NC(=O)c1cnccn1)B(O)O [Bortezomib] + Cc1nc(Nc2ncc(C(=O)Nc3c(C)cccc3Cl)s2)cc(N2CCN(CCO)CC2)n1 [Dasatinib] (partner 0.075 µM)
In a few lines:
(§1)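 Five library-drug doses in √10 steps were combined with a fixed anchor-drug dose, or a single drug was given alone, by pin tool to lung cancer cell lines in 1536-well plates the day after seeding. Nuclei were stained and counted after 5 days. Relative viability is the nuclei count in treated wells over that in vehicle wells, taken as the median of duplicate plates.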

Compound in experiment [1]: CC1=CC(=NN1)NC2=CC(=NC(=N2)/C=C/C3=CC=CC=C3)N4CCN(CC4)C + CC(C)C[C@H](NC(=O)[C@H](Cc1ccccc1)NC(=O)c1cnccn1)B(O)O [Bortezomib] (partner 0.002 µM)
A digest of the protocol:
as §1

Compound in experiment [2]: CC1=CC(=NN1)NC2=CC(=NC(=N2)/C=C/C3=CC=CC=C3)N4CCN(CC4)C + Cc1cc(Nc2cc(N3CCN(C)CC3)nc(Sc3ccc(NC(=O)C4CC4)cc3)n2)n[nH]1 [Tozasertib] (partner 0.1 µM)
In a few lines: as §1

Compound in experiment [3]: CC1=CC(=NN1)NC2=CC(=NC(=N2)/C=C/C3=CC=CC=C3)N4CCN(CC4)C + Nc1nc2[nH]cc(CCc3ccc(C(=O)N[C@@H](CCC(=O)O)C(=O)O)cc3)c2c(=O)[nH]1 [Pemetrexed] (partner 0.2 µM)
A digest of the protocol: as §1

For the cell line NCI-H650, the relative viability came out at 0.503 with Bortezomib + Dasatinib (first compound 0.000632 µM); 0.428 with Bortezomib + Dasatinib (first compound 0.002 µM); 0.268 with Bortezomib + Dasatinib (first compound 0.006325 µM); 0.16 with Bortezomib + Dasatinib (first compound 0.02 µM); 0.839 in experiment [1] (first compound 0.08 µM); 1.01 in experiment [1] (first compound 0.253 µM). Moreover, the relative viability in experiment [1] (first compound 0.8 µM) was determined as 0.673; in experiment [1] (first compound 2.53 µM), 0.364; in experiment [1] (first compound 8 µM) it was 0.187; in experiment [2] (first compound 0.253 µM), 0.822; in experiment [2] (first compound 0.8 µM) it was 0.603; in experiment [2] (first compound 2.53 µM) it was 0.4. The relative viability was determined as 0.173 in experiment [2] (first compound 8 µM); 1.01 in experiment [3] (first compound 0.08 µM); 1.08 in experiment [3] (first compound 0.253 µM); 1.01 in experiment [3] (first compound 0.8 µM); 0.727 in experiment [3] (first compound 2.53 µM); 0.307 in experiment [3] (first compound 8 µM).
